Data as given in US20210170033A1, “NOVEL CONJUGATES OF A PHARMACEUTICAL AGENT AND A MOIETY CAPABLE OF BINDING TO A GLUCOSE SENSING PROTEIN” (SANOFI, priority 2017, published 2021).
Like-named read-outs stand apart in the source and are kept apart here.

What was measured:
[1] = biological target: T1, hGLUT1 protein (Homo sapiens, UniProt P11166); assay: NanoBRET-based GLUT1-binding assay in HEK cells; details: for BRET interference signal using Glucose: check of HiBit-tagged GLUT1 HEK cell line, stereoselective signal
T1 construct: fused on or other part: 11-amino-acid HiBiT peptide tag (small part of nanoluciferase) inserted into the first extracellular loop of GLUT1
T1 sequence (P11166 1-492): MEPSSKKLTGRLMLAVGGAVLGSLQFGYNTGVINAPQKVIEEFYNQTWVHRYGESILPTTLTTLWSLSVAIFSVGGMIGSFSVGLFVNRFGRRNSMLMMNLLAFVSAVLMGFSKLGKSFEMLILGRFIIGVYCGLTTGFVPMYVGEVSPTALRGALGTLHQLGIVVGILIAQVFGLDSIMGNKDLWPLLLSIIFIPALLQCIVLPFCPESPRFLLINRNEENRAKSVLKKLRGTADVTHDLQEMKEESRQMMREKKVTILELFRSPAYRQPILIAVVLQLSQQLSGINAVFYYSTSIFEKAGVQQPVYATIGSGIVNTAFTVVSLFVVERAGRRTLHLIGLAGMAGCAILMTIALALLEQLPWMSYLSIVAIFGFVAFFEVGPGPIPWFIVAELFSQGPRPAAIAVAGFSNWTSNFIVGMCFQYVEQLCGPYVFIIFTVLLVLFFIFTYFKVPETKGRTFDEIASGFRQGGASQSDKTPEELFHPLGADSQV
Procedure: 3. NanoBRET-Based GLUT1-Binding Assays in HEK Cells
To measure binding of compounds to the hGLUT1 protein, the newly-developed NanoBRET platform from Promega is used. In this technology binding is measured via Foerster Resonance Energy Transfer. Foerster Resonance Energy Transfer is based on a direct, radiation-free energy transfer from donor to acceptor and can only take place when donor and acceptor are within nm distance. As donor energy the bioluminescence light of nanoluciferase is used, therefore this application is referred to as BRET (Bioluminescence Resonance Energy Transfer). Nanoluciferase is a protein that emits light when the appropriate substrate is available.
Nanoluciferase is attached to GLUT1 via protein complementation using the HiBit protein tagging system (Promega). […] The HiBit peptide tag is used as a landing pad for the so called Large Bit protein that is commercially available from Promega and added to the medium. Large Bit has a high affinity for HiBit tag resulting in protein complementation to a fully-functional nanoluciferase, which is used as energy donor in the NanoBRET assay system.
To obtain a HEK cell line expressing HiBit-tagged GLUT1, cells were transfected with the appropriate construct placed behind the tetracycline-inducible promoter (Flipin T-Rex system from Thermo Fisher, K650001) and a cell line was generated.
As NanoBRET acceptor a GLUT1 inhibitor described by Siebeneicher et al. (Siebeneicher H., Bauser M., Buchmann B., et al. Identification of novel GLUT inhibitors. Bioorganic & Medicinal Chemistry Letters 2016; 26(7):1732-7; compound 53) was reduced to the aminobenzyl derivative and coupled to the fluorophore NanoBRET618 (Promega) and is referred to as “Bayer+NB618”.
For the assay 50 μl with 7500 cells (HiBit-tagged GLUT1 HEK cells) are plated into 384 poly-D-lysine-coated black μClear plates (Greiner) in DMEM (Gibco 61966) medium supplemented with 10% tetracycline-free FCS (PAN P30-3602) and 300 ng/ml doxycycline (Sigma 9891) to induce the induction of the HiBit-tagged GLUT1 protein.
Incubation of Compound and Acceptor Molecule
After getting adherent by overnight incubation at 37° C. and 10% CO2, the medium is replaced by 10 μl imaging medium (1% BSA (Sigma A9576), 5 mM Hepes (Gibco 15630), 0.35 mM Na-bicarbonate (Gibco 11360-039), 1 mM Na-Pyruvate (Gibco 11360) in PBS buffer (Gibco14040)). 5 μl Bayer+NB618 (in imaging medium, final concentration 75 nM) is added and the plates are incubated for 15 minutes statically at room temperature.
A serial dilution of the test compounds is prepared in imaging medium and added in 10 μl to the respective wells. As a positive control for displacement values from wells incubated with 200 mM D-Glucose (Sigma G8769) are used. Plates are incubated for 30 minutes at room temperature without shaking.
Generating Luminescence and Measuring Fluorescence
This detection solution is made in the buffer provided. After addition of the detection reagent, the samples are incubated for 30 minutes without shaking and subsequently the luminescence and fluorescence emissions are measured simultaneously on the PHERAstar FSX (BMG Labtech) using the appropriate dual filter setup. This filter setup is made up of a 450-80 nm band pass filter to measure the donor signal peaking at 460 nm and a long pass filter starting at 610 nm to measure the fluorescence emission of NanoBRET 618, which peaks at 621 nm and continues beyond 700 nm.
From the raw luminescence and fluorescence values, the NanoBRET ratios are calculated, being the ratio of the fluorescence signal divided by the luminescence signal. Mean values are obtained from at least duplicates.
For percentage inhibition results, the mean value of the not-compound-treated cells is set as 0%. The mean BRET value of the cells treated with 200 mM glucose is used for maximal inhibition. All other mean values were calculated to this relation. […]

[2] = tested on: A2780 cells; assay: Deoxy-glucose uptake assay in A2780 cells (14C 2-deoxy-D-glucose transport); assay type: cell-based; details: Homo sapiens, 20 min; inhibition of 14C 2-deoxy-D-glucose transport into A2780 cells; 20 min compound incubation; read-out: IC50
How it was run: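 Radiolabelled 2-deoxy-D-glucose transport over 20 min was scintillation-counted in A2780 cells, grown 48 h, after 20 min compound exposure in KRB. Untreated cells gave the 100% reference, with Cytochalasin B defining background. IC50 values were regressed from triplicate means across 7 or 14 concentrations.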

[3] = tested on: A2780 Human Carcinoma Cells; assay: Glucose displacement assay (ATP measurement, CellTiter-Glo); assay type: cell-based; details: ATP measurement in A2780 cells, 0.5 μM rotenone
How it was run: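 Cells were glucose-starved for 2 h in 1% FCS medium, then treated with compound in KRB buffer for 20 min at 37 °C with rotenone at 0.5 μM final. Glucose (typically 0.1–10 mM) was added for 15 min at 37 °C. ATP was measured by CellTiter-Glo luminescence.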

[4] = displacement of Bayer+NB618 (75 nM) from HiBit-tagged GLUT1 HEK cells, mean of measurements done twice in duplo, read-out: IC50
[5] = 1 mM glucose, read-out: IC50 [μM] at 1 mM glucose
[6] = 10 mM glucose, read-out: IC50 [μM] at 10 mM glucose

Row | IC50 [2] [µM] | IC50 [1, 4] [µM] | IC50 [3, 5] [µM] | IC50 [3, 6] [µM] | SMILES | IC50 [1] [µM] | BRET interference signal using Glucose [1]
1 | – | – | – | – | O=C[C@H](O)[C@@H](O)[C@H](O)[C@H](O)CO [D-Glucose, reference compound] | 5330 ± 560 | decreases BRET
2 | 1.8 | 4.41 | – | – | CO[C@H]1O[C@H](CO)[C@@H](O)[C@H](O)[C@H]1OC(=O)c1cc(Cl)c(OCc2cccc(CNC(=O)OC(C)(C)C)c2)c(Cl)c1C [Example 202a] | – | –
3 | 0.1 | 0.24 | < 0.12 | 0.288 | C#CCCCn1c(COc2c(Cl)cc(C(=O)O[C@H]3[C@@H](OC)O[C@H](CO)[C@@H](O)[C@@H]3O)c(C)c2Cl)nc2ccccc21 [Example 212] | – | –
4 | 0.1 | 2.83 | – | – | CO[C@H]1O[C@H](CO)[C@@H](O)[C@H](O)[C@H]1NC(=O)c1cc(Cl)c(OCc2nc3ccccc3n2CCCCCCNC(=O)OC(C)(C)C)c(Cl)c1C [Example 305] | – | –
5 | 3 | 0.19 | 1.86 | 7.95 | COC(=O)[C@H](CCC(=O)NCc1cccc(COc2c(Cl)cc(C(=O)O[C@H]3[C@@H](OC)O[C@H](CO)[C@@H](O)[C@@H]3O)c(C)c2Cl)c1)NC(=O)OC(C)(C)C [Example 306] | – | –
6 | 0.02 | 0.22 | 0.51 | 1.13 | C#CCCCCCn1c(COc2c(Cl)cc(C(=O)O[C@H]3[C@@H](OC)O[C@H](CO)[C@@H](O)[C@@H]3O)c(C)c2Cl)nc2ccccc21 [Example 320] | – | –
7 | 1.6 | 13.6 | 0.56 | > 33 | C#CCCCn1c(COc2cc(OC)c(C(=O)N[C@H]3[C@@H](OC)O[C@H](CO)[C@@H](O)[C@@H]3O)cc2Cl)nc2ccccc21 [Example 328] | – | –
8 | 0.4 | 9.49 | 0.35 | 4.55 | COc1cc(OCc2ccc3c(c2)nnn3C)c(Cl)cc1C(=O)O[C@H]1[C@@H](OC)O[C@H](CO)[C@@H](O)[C@@H]1O [Example 340] | – | –
9 | 3.9 | > 30 | – | – | C#CCCCn1c(COc2cc(OC)c(C(=O)O[C@@H]3[C@@H](O)[C@@H](OC)O[C@H](CO)[C@H]3O)cc2Cl)nc2ccccc21 [Example 367] | – | –
10 | 0.4 | 6.98 | – | – | COC(=O)/C=C/c1ccc(COc2cc(OC)c(C(=O)N[C@H]3[C@@H](OC)O[C@H](CO)[C@@H](O)[C@@H]3O)cc2Cl)cc1 [Example 370] | – | –
11 | 0.9 | 17.2 | – | – | COc1cc(OCc2cccc(OCCCC(=O)OC(C)(C)C)c2)c(Cl)cc1C(=O)N[C@H]1[C@@H](OC)O[C@H](CO)[C@@H](O)[C@@H]1O [Example 393] | – | –
12 | 0.7 | 8.3 | 3.07 | 9.21 | COc1cc(OCc2cccc(NC(=O)OC(C)(C)C)c2)c(Cl)cc1C(=O)N[C@H]1[C@H](OC)O[C@H](CO)[C@@H](O)[C@@H]1O [Example 415] | – | –
13 | – | 9.77 | 1.64 | 22.4 | COC(=O)c1ccn2cc(COc3cc(OC)c(C(=O)N[C@H]4[C@@H](OC)O[C@H](CO)[C@@H](O)[C@@H]4O)cc3Cl)nc2c1 [Example 416] | – | –
14 | – | – | – | – | O=C[C@@H](O)[C@H](O)[C@@H](O)[C@@H](O)CO [L-Glucose, reference compound] | – | no effect on BRET
